Assay results taken from patent US20040229867A1, “Treatment of gastrointestinal dysfunction and related stress with an enantiomerically-pure (R) 2,3-benzodiazepine” (priority 2003, published 2004).

Columns and labels:
[1] = tested on: gastrointestinal propulsive motility; assay: Charcoal meal test (basal gastrointestinal propulsive motility); assay type: in vivo, rat; settings: for % Inhibition: numbers in parentheses indicate % increase; for effect on charcoal meal transit: R-tofisopam at the highest dose tested, loperamide positive control
[2] = tested on: colonic propulsive motility; assay: Glass bead test (stimulated colonic propulsion); assay type: in vivo, mouse; settings: for Expulsion Time Mean ± SEM: 30 minutes prior to bead insertion, cutoff 30 minutes, in min
Protocol: In the test, usually performed in mice, a 3-mm glass bead is inserted through the anus into the distal colon (using a glass rod) to a depth of 2 cm. The time to expel the glass bead is then measured; normally, the glass bead is expelled in approximately 10 minutes. This model is especially sensitive to compounds with inhibitory effects on stretch-stimulated propulsive motor activity; as such, it is often used as an animal model for IBS. A test compound that inhibits stretch-stimulated-colonic propulsive motility, may be used to treat gastrointestinal dysfunction, including IBS. […] The glass bead test is commonly used to evaluate the ability of compounds to affect stimulated colonic propulsion. In the test, usually performed in mice, a 3-mm glass bead is inserted through the anus into the distal colon (using a glass rod) to a depth of 2 cm. The time to expel the glass bead is then measured; normally, the glass bead is expelled in approximately 10 minutes. This model is especially sensitive to compounds with inhibitory effects on stretch-stimulated propulsive motor activity; as such, it is often used as an animal model for IBS. In each study, RS— and R-tofisopam were evaluated for their ability to increase or decrease the time for expulsion of the glass bead.

[3] = tested on: stress-induced ulcer formation; assay: Water immersion stress-induced ulcers test; assay type: in vivo, rat; settings: for Score for the Presence of Ulcers Mean ± SEM: score 0-4; for Ulceration Index: ulcer score x percentage of stomachs showing ulcers; for effect on ulcer score: text summary of Table 4
stress-induced ulcers = settings: pre-treatment 30 or 100 mg/kg PO; cited from earlier work
gastric function = settings: cited from earlier work
[4] = tested on: hydrochloric acid-induced, alkali-induced and cauterization-induced ulcers; settings: in vivo; cited from earlier work
[5] = tested on: abdominal contractions induced by colonic distension; assay: Visceral hypersensitivity, pain and bloating test (colonic distension after 1% acetic acid); assay type: in vivo, rat
[6] = tested on: dextran sulfate sodium-induced colitis; assay: Dextran sulfate sodium-induced colitis; assay type: in vivo; settings: DSS 5% solution in tap water
Text: Another gastrointestinal disorder model tested was the dextran sulfate sodium-induced colitis. In this model of colitis, an acute inflammation of the colon is produced by administration of dextran sulfate sodium (DSS) as a 5% solution in tap water. This colitis is characterized by histological events and an influx of neutrophils, macrophages and mediators of inflammation similar to those observed with human inflammatory bowel diseases.

[7] = tested on: dextran sulfate sodium-induced colitis; settings: in vivo; cited from earlier work
[8] = first experiment, 64 mg/kg IP, 30 minutes prior to charcoal meal
[9] = 8 mg/kg IP 30 minutes prior to water immersion

Structure (SMILES): CCC1C(C)=NN=C(c2ccc(OC)c(OC)c2)c2cc(OC)c(OC)cc21 (racemic) [RS-tofisopam, tofisopam]
- % Intestine Traversed Mean ± SEM ([1]; first experiment, 16 mg/kg IP): 73.5 ± 3.5%
- % Inhibition ([1]; first experiment, 16 mg/kg IP): 9.8%
- % Intestine Traversed Mean ± SEM ([1]; first experiment, 32 mg/kg IP): 77.7 ± 2.3%
- % Inhibition ([1]; first experiment, 32 mg/kg IP): 4.7%
- % Intestine Traversed Mean ± SEM [1, 8]: 81.7 ± 2.8%
- % Inhibition ([1]; first experiment, 64 mg/kg IP): 0%
- % Intestine Traversed Mean ± SEM ([1]; second experiment, 4 mg/kg IP): 77.9 ± 2.9%
- % Intestine Traversed Mean ± SEM ([1]; second experiment, 8 mg/kg IP): 78.3 ± 1.7%
- % Intestine Traversed Mean ± SEM ([1]; second experiment, 16 mg/kg IP): 70.4 ± 3.7%
- % Inhibition ([1]; second experiment, 16 mg/kg IP): 5.8%
- % Intestine Traversed Mean ± SEM ([1]; second experiment, 32 mg/kg IP): 65.6 ± 4.5%
- % Inhibition ([1]; second experiment, 32 mg/kg IP): 12.2%
- % Inhibition ([2]; 16 mg/kg IP): 46%
- Expulsion Time Mean ± SEM ([2]; 16 mg/kg IP): 19.0 ± 2.8
- % Inhibition ([2]; 32 mg/kg IP): 71%
- Expulsion Time Mean ± SEM ([2]; 32 mg/kg IP): 23.7 ± 2.6
- % Inhibition ([2]; 64 mg/kg IP): 82%
- Expulsion Time Mean ± SEM ([2]; 64 mg/kg IP): 26.4 ± 2.4
- % of Stomachs Showing Ulcers ([3]; 8 mg/kg IP): 100%
- Score for the Presence of Ulcers Mean ± SEM [3, 9]: 3.4 ± 0.3
- Ulceration Index ([3]; 8 mg/kg IP): 338
- % of Stomachs Showing Ulcers ([3]; 16 mg/kg IP): 100%
- Score for the Presence of Ulcers Mean ± SEM ([3]; 16 mg/kg IP): 3.4 ± 0.3
- Ulceration Index ([3]; 16 mg/kg IP): 338
- % of Stomachs Showing Ulcers ([3]; 32 mg/kg IP): 100%
- Score for the Presence of Ulcers Mean ± SEM ([3]; 32 mg/kg IP): 3.5 ± 0.3
- Ulceration Index ([3]; 32 mg/kg IP): 350
- % of Stomachs Showing Ulcers ([3]; 64 mg/kg IP): 100%
- Score for the Presence of Ulcers Mean ± SEM ([3]; 64 mg/kg IP): 3.1 ± 0.3
- Ulceration Index ([3]; 64 mg/kg IP): 313
- % of Stomachs Showing Ulcers ([3]; 128 mg/kg IP): 75%
- Score for the Presence of Ulcers Mean ± SEM ([3]; 128 mg/kg IP): 2.4 ± 0.4
- Ulceration Index ([3]; 128 mg/kg IP): 178
- reduction of number of stress-induced ulcers and total area of ulceration (stress-induced ulcers): ≤ 90%
- effect on basal gastric acid output and mucosal blood flow (gastric function; intracerebroventricular injection 50 or 100 μg): increased both basal gastric acid output and mucosal blood flow
- effect on basal gastric acid output (gastric function; intravenous injection 10 mg/kg): did not change basal gastric acid output
- effect on cauterization-induced ulcers [4]: promoted the healing
- effect on hydrochloric acid-induced and alkali-induced ulcers [4]: suppressed the development
- effect on number of abdominal contractions versus vehicle control ([5]; 32 mg/kg): did not significantly modify

Structure (SMILES): CN1C(=O)CC(=O)N(c2ccccc2)c2cc(Cl)ccc21 [Clobazam, clobazam]
- % of Stomachs Showing Ulcers ([3]; 16 mg/kg IP): 100%
- Score for the Presence of Ulcers Mean ± SEM ([3]; 16 mg/kg IP): 3.6 ± 0.2
- Ulceration Index ([3]; 16 mg/kg IP): 363
- % of Stomachs Showing Ulcers ([3]; 32 mg/kg IP): 75%
- Score for the Presence of Ulcers Mean ± SEM ([3]; 32 mg/kg IP): 2.6 ± 0.5
- Ulceration Index ([3]; 32 mg/kg IP): 197
- effect on ulcer score [3]: reduced the ulcer score slightly, but this effect was not statistically significant

Structure (SMILES): CN(C)C(=O)C(CCN1CCC(O)(c2ccc(Cl)cc2)CC1)(c1ccccc1)c1ccccc1 [Loperamide, loperamide]
- % Intestine Traversed Mean ± SEM ([1]; second experiment, 16 mg/kg IP): 28.1 ± 2.2 %
- % Inhibition ([1]; second experiment, 16 mg/kg IP): 62.5%
- effect on charcoal meal transit ([1]; second experiment): considerable slowing

Structure (SMILES): CC[C@H]1C(C)=NN=C(c2ccc(OC)c(OC)c2)c2cc(OC)c(OC)cc21 [R-tofisopam, (R)-1-(3,4-dimethoxyphenyl)-4-methyl-5-ethyl-7,8-dimethoxy-5H-2,3-benzodiazepine]
- effect in DSS colitis model compared with racemic tofisopam [6]: substantially greater effect
- % Intestine Traversed Mean ± SEM ([1]; first experiment, 16 mg/kg IP): 82.8 ± 3.1%
- % Intestine Traversed Mean ± SEM ([1]; first experiment, 32 mg/kg IP): 85.4 ± 2.9%
- % Intestine Traversed Mean ± SEM [1, 8]: 72.9 ± 2.9 %
- % Inhibition ([1]; first experiment, 64 mg/kg IP): 10.6%
- % Intestine Traversed Mean ± SEM ([1]; second experiment, 4 mg/kg IP): 71.72 ± 3.2%
- % Inhibition ([1]; second experiment, 4 mg/kg IP): 4.1%
- % Intestine Traversed Mean ± SEM ([1]; second experiment, 8 mg/kg IP): 75.2 ± 4.1%
- % Intestine Traversed Mean ± SEM ([1]; second experiment, 16 mg/kg IP): 65.7 ± 3.0%
- % Inhibition ([1]; second experiment, 16 mg/kg IP): 12.1%
- % Intestine Traversed Mean ± SEM ([1]; second experiment, 32 mg/kg IP): 59.5 ± 3.2 %
- % Inhibition ([1]; second experiment, 32 mg/kg IP): 20.3%
- effect on charcoal meal transit ([1]; second experiment): only a slight inhibition
- % Inhibition ([2]; 16 mg/kg IP): 100%
- Expulsion Time Mean ± SEM ([2]; 16 mg/kg IP): 30.0 ± 0.0
- % Inhibition ([2]; 32 mg/kg IP): 99%
- Expulsion Time Mean ± SEM ([2]; 32 mg/kg IP): 29.7 ± 0.3
- % Inhibition ([2]; 64 mg/kg IP): 90%
- Expulsion Time Mean ± SEM ([2]; 64 mg/kg IP): 28.0 ± 1.1
- effect on colonic expulsion ([2]; text summary of Table 1, 16-64 mg/kg IP): significantly prolonged (i.e., slowed) colonic expulsion
- % of Stomachs Showing Ulcers ([3]; 8 mg/kg IP): 100%
- Score for the Presence of Ulcers Mean ± SEM [3, 9]: 3.6 ± 0.3
- Ulceration Index ([3]; 8 mg/kg IP): 363
- % of Stomachs Showing Ulcers ([3]; 16 mg/kg IP): 88%
- Score for the Presence of Ulcers Mean ± SEM ([3]; 16 mg/kg IP): 3.1 ± 0.5
- Ulceration Index ([3]; 16 mg/kg IP): 273
- % of Stomachs Showing Ulcers ([3]; 32 mg/kg IP): 88%
- Score for the Presence of Ulcers Mean ± SEM ([3]; 32 mg/kg IP): 3.1 ± 0.5
- Ulceration Index ([3]; 32 mg/kg IP): 273
- % of Stomachs Showing Ulcers ([3]; 64 mg/kg IP): 29%
- Score for the Presence of Ulcers Mean ± SEM ([3]; 64 mg/kg IP): 1.7 ± 0.6
- Ulceration Index ([3]; 64 mg/kg IP): 49
- % of Stomachs Showing Ulcers ([3]; 128 mg/kg IP): 38%
- Score for the Presence of Ulcers Mean ± SEM ([3]; 128 mg/kg IP): 1.4 ± 0.2
- Ulceration Index ([3]; 128 mg/kg IP): 52
- effect on ulcer score [3]: significantly reduced the ulcer score
- decrease of abdominal cramps versus vehicle control ([5]; 32 mg/kg p.o.): 49%
- number of abdominal cramps ([5]; 32 mg/kg p.o., vehicle control 18.8 cramps): 9.5±1.7 cramps

Structure (SMILES): O=C(O)c1cc(/N=N/c2ccc(S(=O)(=O)Nc3ccccn3)cc2)ccc1O [sulfasalazine]
- activity in DSS colitis model [7]: have been shown to have activity in this model
